Measured values: article PMC2996484 (Journal of neurochemistry, 2010)

How the values were obtained:
[1] = system: PKC phosphorylation of the D1DAR; assay: In situ phosphorylation assay, HEK293T cells expressing the D1DAR; type: cell-based, rat; settings: cells treated 30 min with 1 μM phorbol ester, Fig. 1A
WT D1DAR = WT D1DAR (Rattus norvegicus, UniProt P18901); assay: cAMP accumulation assay, HEK293T cells expressing WT D1DAR; type: cell-based; settings: 1 μM PMA 30 min or 3 μM Gö6983 1 hr
PKC-null D1DAR = PKC-null D1DAR (Rattus norvegicus, UniProt P18901, S259A/S397A/S398A/S417A/S421A); assay: cAMP accumulation assay, HEK293T cells expressing PKC-null D1DAR; type: cell-based; settings: 1 μM PMA 30 min or 3 μM Gö6983 1 hr
PKC-null D1DAR, sequence (P18901 whole entry S259A/S397A/S398A/S417A/S421A): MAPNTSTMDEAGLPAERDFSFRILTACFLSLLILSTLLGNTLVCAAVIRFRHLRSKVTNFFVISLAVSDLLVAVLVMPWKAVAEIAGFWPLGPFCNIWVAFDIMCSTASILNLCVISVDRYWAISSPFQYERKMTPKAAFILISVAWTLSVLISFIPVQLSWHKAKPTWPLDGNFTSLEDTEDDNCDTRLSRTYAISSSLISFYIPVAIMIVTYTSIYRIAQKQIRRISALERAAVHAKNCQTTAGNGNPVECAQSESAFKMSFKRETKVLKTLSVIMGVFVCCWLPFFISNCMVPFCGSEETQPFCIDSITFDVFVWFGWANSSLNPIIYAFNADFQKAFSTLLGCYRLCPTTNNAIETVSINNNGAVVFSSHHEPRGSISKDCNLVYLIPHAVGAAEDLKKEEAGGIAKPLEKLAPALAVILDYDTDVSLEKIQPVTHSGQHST

WT D1DAR, sequence (P18901 whole entry): as the sequence (P18901 whole entry S259A/S397A/S398A/S417A/S421A) above, with A259S, A397S, A398S, A417S, A421S counted along it

Row | SMILES | D1DAR phosphorylation above basal [1] | effect of pretreatment on maximal DA-stimulated cAMP accumulation (WT D1DAR) | effect of pretreatment on maximal DA-stimulated cAMP accumulation (PKC-null D1DAR)
1 | CCCCCCCCCC(=O)O[C@@H]1[C@@H](C)[C@@]2(O)[C@@H](C=C(CO)C[C@@]3(O)C(=O)C(C)=C[C@@H]23)[C@@H]2C(C)(C)[C@]12OC(=O)CCCCCCCCC [4αPDD, 4α-phorbol-12,13-didecanoate] | inactive | – | –
2 | COc1ccc2c(c1)c(C1=C(c3c[nH]c4ccccc34)C(=O)NC1=O)cn2CCCN(C)C [Gö6983] | – | potentiation of the maximal amount of D1DAR-stimulated cAMP accumulation | no longer displays an enhancement of cAMP accumulation
3 | CCCC(=O)O[C@@H]1[C@@H](C)[C@@]2(O)[C@@H](C=C(CO)C[C@]3(O)C(=O)C(C)=C[C@@H]23)[C@@H]2C(C)(C)[C@]12OC(=O)CCC [PDBu, phorbol 12,13 dibutyrate] | robust increase in phosphorylation | – | –
4 | CCCCCCCCCCCCCC(=O)O[C@@H]1[C@@H](C)[C@@]2(O)[C@@H](C=C(CO)C[C@]3(O)C(=O)C(C)=C[C@@H]23)[C@@H]2C(C)(C)[C@]12OC(C)=O [PMA, phorbol 12-myristate 13-acetate] | robust increase in phosphorylation | potentiation of the maximal amount of D1DAR-stimulated cAMP accumulation | potentiation of maximal cAMP accumulation
